We go through 16 compounds from ChEMBL document CHEMBL4033648, “Eco-friendly synthesis of novel cyanopyridine derivatives and their anticancer and PIM-1 kinase inhibitory activities” (Eur J Med Chem, 2017).

A word on the inhibition: it is the drop in the measured response relative to a control, in per cent. What is called IC50 is the concentration at which inhibition is half-maximal.

Test [1] deals with Serine/threonine-protein kinase pim-1 (Homo sapiens, UniProt P11309). The test is described as follows: Inhibition of human PIM1 measured after 5 mins by ELISA relative to control. Also on record: concentration or dose not given beside the values. (In an ELISA, binding on a coated surface is turned into a signal by an enzyme label.)
Test [2] has as its system HepG2. As to the kind of experiment: Cytotoxicity against human HepG2 cells. It is filed as functional, cell-based.
In test [3] the test system is MCF7. The test is described as follows: Cytotoxicity against human MCF7 cells. It counts as functional, cell-based.
For test [4], the system named is HCT-116. As to the kind of experiment: Cytotoxicity against human HCT116 cells. It counts as functional, cell-based.
Test [5] concerns HepG2. The test is described as follows: Induction of apoptosis in human HepG2 cells assessed as decrease in Bcl2 level by qRT-PCR analysis relative to control. It is filed as functional. A general note: Real-time PCR tracks product formation cycle by cycle.
For test [6], the system named is HepG2. As to the kind of experiment: Induction of apoptosis in human HepG2 cells assessed as increase in Bax level by qRT-PCR analysis relative to control. It counts as functional.
For test [7], the system named is HepG2. As to the kind of experiment: Induction of apoptosis in human HepG2 cells assessed as upregulation of caspase 3 level measured up to 30 mins by immunoassay relative to control. It is filed as functional.
Test [8] relates to HepG2. As to the kind of experiment: Induction of apoptosis in human HepG2 cells assessed as increase in Bax/Bcl2 ratio by qRT-PCR analysis relative to control. It is filed as functional.

In turn, `COc1ccc(-c2cc(-c3cc4c(ccc5ccccc54)oc3=O)nc(N)c2C#N)cc1` registered an inhibition in test [1] of 26%. For the same compound, in test [2], the IC50 worked out at 300 µM.

On to `N#Cc1c(-c2cccc3ccccc23)cc(-c2cc3c(ccc4ccccc43)oc2=O)[nH]c1=O`, for which the IC50 in test [1] turned out to be 1.47 µM; in test [3], 25.2 µM; in test [2], 15.3 µM; in test [4], 25.9 µM. In test [1], this compound returned an inhibition of 79.5%.

On to `N#Cc1c(-c2cccs2)cc(-c2cc3c(ccc4ccccc43)oc2=O)[nH]c1=O`, for which the “fold change (FC)” value came out at 38.7 in test [5], 585 in test [6], 5.6 in test [7] and 22704 in test [8]. The concentration for half-maximal inhibition (IC50) in test [1] was 0.94 µM; in test [3], 20.6 µM; in test [2], 30.5 µM; in test [4], 36.2 µM. Besides, the inhibition in test [1] is 89%.

In test [1], `COc1ccc(-c2cc(-c3cccs3)nc(N)c2C#N)cc1` registered an inhibition of 76.9%. Besides, the results for the concentration for half-maximal inhibition (IC50) in test [3], in test [2] and in test [4] were 88.3 µM, 104 µM and 122 µM, respectively.

`N#Cc1c(-c2cccc3ccccc23)cc(-c2ccc3ccccc3c2)nc1N`: the IC50 was 1.16 µM in test [1], 19.2 µM in test [3], 11.9 µM in test [2] and 20.5 µM in test [4]. Besides, the inhibition in test [1] is 86.5%.

`N#Cc1c(-c2cccs2)cc(-c2cccs2)nc1N`: the IC50 came to 7.52 µM in test [1], 72.1 µM in test [3], 28.3 µM in test [2] and 91.2 µM in test [4]. In test [1], the inhibition worked out at 85%.

`COc1ccc(-c2cc(-c3cccs3)[nH]c(=O)c2C#N)cc1`: the concentration for half-maximal inhibition (IC50) is 6.7 µM in test [1], 21.9 µM in test [3], 15.5 µM in test [2] and 28.7 µM in test [4]. This compound also gave an inhibition in test [1] of 73%.

In turn, `N#Cc1c(-c2cccc3ccccc23)cc(-c2cccs2)nc1N` yielded an inhibition in test [1] of 58.5%. In addition, the IC50 in test [3] came to 38.8 µM; in test [2], 181 µM; in test [4], 66.7 µM.

Consider `COc1ccc(-c2cc(-c3cc4c(ccc5ccccc54)oc3=O)[nH]c(=O)c2C#N)cc1`, for which the half-inhibitory concentration (IC50) was found to be 10.6 µM in test [1], 36.7 µM in test [3], 36.3 µM in test [2] and 24.9 µM in test [4]. In test [1], this compound displayed an inhibition of 83.1%.

On to `N#Cc1c(-c2cccs2)cc(-c2cc3c(ccc4ccccc43)oc2=O)nc1N`, for which the half-maximal inhibitory concentration (IC50) in test [1] was determined as 19.3 µM; in test [3] it was 59.1 µM; in test [2], 35.7 µM; in test [4], 80 µM. In test [1], this compound came in with an inhibition of 69.2%.

In test [1], `COc1cc2c(c(OC)c1OC)-c1ccc(OC)c(=O)cc1[C@@H](NC(C)=O)CC2` [COLCHICINE] returned an IC50 of 4.3 µM and an inhibition of 65.1%.

For `N#Cc1c(-c2cccc3ccccc23)cc(-c2ccc3ccccc3c2)[nH]c1=O`, the concentration for half-maximal inhibition (IC50) was 10 µM in test [1], 236 µM in test [3], 220 µM in test [2] and 228 µM in test [4]. In test [1], this compound returned an inhibition of 81%.

Take `N#Cc1c(-c2cccc3ccccc23)cc(-c2cc3c(ccc4ccccc43)oc2=O)nc1N`: the concentration for half-maximal inhibition (IC50) in test [1] was found to be 25.5 µM; in test [3], 80.7 µM; in test [2], 45.8 µM; in test [4], 30.6 µM. In test [1], this compound registered an inhibition of 61.5%.

As to `N#Cc1c(-c2cccc3ccccc23)cc(-c2cccs2)[nH]c1=O`, the half-inhibitory concentration (IC50) is 4.8 µM in test [1], 27.1 µM in test [3], 35.9 µM in test [2] and 28.6 µM in test [4]. In addition, in test [1], the inhibition came out at 77.8%.

For the compound `N#Cc1c(-c2cccs2)cc(-c2cccs2)nc1O`, the IC50 was 3.16 µM in test [1], 249 µM in test [3], 41.6 µM in test [2] and 187 µM in test [4]. Moreover, the inhibition in test [1] turned out to be 84.8%.

For the compound `O=c1[nH]cc(F)c(=O)[nH]1` [FLUOROURACIL], the IC50 worked out at 7.9 µM in test [3] and 8.1 µM in test [2].
